Target: T1, Protein mono-ADP-ribosyltransferase TIPARP (Homo sapiens, UniProt Q7Z3E1)
T1 sequence (Q7Z3E1 whole entry): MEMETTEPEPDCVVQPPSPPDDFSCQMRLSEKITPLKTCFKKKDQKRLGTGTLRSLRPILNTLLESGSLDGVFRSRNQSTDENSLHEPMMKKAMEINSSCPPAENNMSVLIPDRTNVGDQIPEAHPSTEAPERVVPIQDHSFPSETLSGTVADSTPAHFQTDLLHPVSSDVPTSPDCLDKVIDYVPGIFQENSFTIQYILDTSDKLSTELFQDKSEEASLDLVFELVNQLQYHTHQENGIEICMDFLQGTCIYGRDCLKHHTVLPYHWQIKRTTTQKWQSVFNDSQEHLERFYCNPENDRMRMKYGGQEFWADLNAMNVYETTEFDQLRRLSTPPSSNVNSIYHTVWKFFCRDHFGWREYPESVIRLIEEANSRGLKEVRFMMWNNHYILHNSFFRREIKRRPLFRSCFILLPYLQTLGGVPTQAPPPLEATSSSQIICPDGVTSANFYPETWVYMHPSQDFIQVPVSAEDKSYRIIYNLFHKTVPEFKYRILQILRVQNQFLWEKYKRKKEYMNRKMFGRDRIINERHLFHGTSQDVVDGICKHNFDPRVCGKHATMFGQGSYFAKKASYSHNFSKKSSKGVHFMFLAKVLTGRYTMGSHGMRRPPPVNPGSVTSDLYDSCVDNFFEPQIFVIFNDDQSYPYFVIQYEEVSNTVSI
Test: Displacement of biotinylated RBN011147 probe from PARP7 (unknown origin) preincubated for 1 hr followed by incubation with probe for 1.5 hrs by MSD electrochemiluminescent assay

`C[C@@H](CCCn1ccc2cc(-c3ncc(C(F)(F)F)c(N4CC(C#N)C4)n3)c(F)cc2c1=O)Nc1cn[nH]c(=O)c1C(F)(F)F` and `C[C@@H](CCCn1ccc2cc(-c3ncc(C(F)(F)F)c(N4C[C@@H](O)[C@@H]4C)n3)c(F)cc2c1=O)Nc1cn[nH]c(=O)c1C(F)(F)F` are within 1.5-fold of each other in IC50: 0.188 nM for the first, 0.185 nM for the second.

With `C[C@@H](CCCn1ccc2cc(-c3ncc(Cl)c(N)n3)c(F)cc2c1=O)Nc1cn[nH]c(=O)c1C(F)(F)F` the IC50 was 0.188 nM.

Reference: ChEMBL document CHEMBL5390302, “Novel PARP7 Inhibitors for Treating Cancer” (ACS Med Chem Lett, 2023)
